In ChEMBL document CHEMBL1201862, “PubChem BioAssay data set” (2004):
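Grown in 96-well plates, cells were treated for 48 hours with each compound at five concentrations. Insufficient inhibition: endpoint recorded as highest concentration tested. Here, GI50 denotes the concentration required for 50% inhibition of growth.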 Active and inactive are the calls of the source. No stated cut-off is given here; in the data, active = GI50 up to about 1.1 µM and inactive = higher.

Legend:
Assay in all cases: NCI anticancer screen, dose series, 48 h
LOX IMVI = tested on: LOX IMVI
786-0 = tested on: 786-0
UO-31 = tested on: UO-31
BT-549 = tested on: BT-549
SK-MEL-28 = tested on: SK-MEL-28
MDA-MB-231 = tested on: MDA-MB-231
SN12C = tested on: SN12C
DU-145 = tested on: DU-145
SF-268 = tested on: SF-268
COLO 205 = tested on: COLO 205
SF-539 = tested on: SF-539
CAKI-1 = tested on: CAKI-1
MOLT-4 = tested on: MOLT-4
UACC-257 = tested on: UACC-257
SK-OV-3 = tested on: SK-OV-3
SR = tested on: SR
K562 = tested on: K562
A549 = tested on: A549

SMILES	GI50 (LOX IMVI)	GI50 (786-0)	GI50 (UO-31)	GI50 (BT-549)	GI50 (SK-MEL-28)	GI50 (MDA-MB-231)	GI50 (SN12C)	GI50 (DU-145)	GI50 (SF-268)	GI50 (COLO 205)	GI50 (SF-539)	GI50 (CAKI-1)	GI50 (MOLT-4)	GI50 (UACC-257)	GI50 (SK-OV-3)	GI50 (SR)	GI50 (K562)	GI50 (A549)
N#Cc1ccc(NC(=O)C(CC(=O)OCc2ccccc2)NC(=O)OCc2ccccc2)cc1 (stereo unspecified)	> 10 µM (inactive)	> 10 µM (inactive)	> 10 µM (inactive)	> 10 µM (inactive)	> 10 µM (inactive)	> 10 µM (inactive)	> 10 µM (inactive)	3.72 µM (inactive)	> 10 µM (inactive)	> 10 µM (inactive)	> 10 µM (inactive)	> 10 µM (inactive)	> 10 µM (inactive)	> 10 µM (inactive)	> 10 µM (inactive)	> 10 µM (inactive)	> 10 µM (inactive)	> 10 µM (inactive)
O=C1/C(=C/c2cccc(Br)c2)CCc2ccccc21	12.8 µM (inactive)	16.3 µM (inactive)	13.8 µM (inactive)	9.53 µM (inactive)	18.4 µM (inactive)	20.4 µM (inactive)	15.4 µM (inactive)	17.2 µM (inactive)	6.76 µM (inactive)	20.8 µM (inactive)	17.5 µM (inactive)	16 µM (inactive)	10.2 µM (inactive)	14.8 µM (inactive)	22.8 µM (inactive)	4.1 µM (inactive)	6.65 µM (inactive)	16.4 µM (inactive)
CC1CCc2c(c(CC3CC(=O)NC(=O)C3)nn2-c2ccccc2)C1 (stereo unspecified)	> 100 µM (inactive)	> 100 µM (inactive)	55.6 µM (inactive)	> 100 µM (inactive)	> 100 µM (inactive)	> 100 µM (inactive)	> 100 µM (inactive)	> 100 µM (inactive)	> 100 µM (inactive)	> 100 µM (inactive)	> 100 µM (inactive)	> 100 µM (inactive)	> 100 µM (inactive)	> 100 µM (inactive)	> 100 µM (inactive)	> 100 µM (inactive)	> 100 µM (inactive)	> 100 µM (inactive)
COc1cc(/C=C/C=C2\CC/C(=C\C=C\c3ccc(O)c(OC)c3)C2=O)ccc1O	> 100 µM (inactive)	> 100 µM (inactive)	> 82 µM (inactive)	> 100 µM (inactive)	> 100 µM (inactive)	> 59.7 µM (inactive)	> 100 µM (inactive)	> 100 µM (inactive)	> 100 µM (inactive)	> 100 µM (inactive)	> 100 µM (inactive)	> 100 µM (inactive)	1.02 µM (active)	> 100 µM (inactive)	> 22.2 µM (inactive)	2.53 µM (inactive)	15.2 µM (inactive)	> 100 µM (inactive)
CCOc1ccc(NC(=O)C(=O)C(/C(=N/N)C(=O)OC)c2nc3ccc([N+](=O)[O-])cc3nc2O)cc1 (stereo unspecified)	> 100 µM (inactive)	> 100 µM (inactive)	> 100 µM (inactive)	> 100 µM (inactive)	> 100 µM (inactive)	> 100 µM (inactive)	> 100 µM (inactive)	> 100 µM (inactive)	> 100 µM (inactive)	> 100 µM (inactive)	> 100 µM (inactive)	> 100 µM (inactive)	> 100 µM (inactive)	> 100 µM (inactive)	> 100 µM (inactive)	70 µM (inactive)	> 100 µM (inactive)	> 100 µM (inactive)
NS(=O)(=O)c1ccc(NNC(=O)c2cccc3c(=O)c4ccccc4[nH]c23)cc1	30.1 µM (inactive)	> 100 µM (inactive)	45.1 µM (inactive)	62.4 µM (inactive)	> 100 µM (inactive)	51.6 µM (inactive)	> 100 µM (inactive)	> 100 µM (inactive)	71.8 µM (inactive)	> 100 µM (inactive)	> 100 µM (inactive)	> 100 µM (inactive)	42.2 µM (inactive)	> 100 µM (inactive)	> 100 µM (inactive)	49.8 µM (inactive)	41.7 µM (inactive)	> 100 µM (inactive)
C=CCN1C(=O)/C(=C/c2ccco2)N=C1SC/C=C/C	26.5 µM (inactive)	28.2 µM (inactive)	73.5 µM (inactive)	40.2 µM (inactive)	46.1 µM (inactive)	67.9 µM (inactive)	23.5 µM (inactive)	> 100 µM (inactive)	49.2 µM (inactive)	36 µM (inactive)	> 100 µM (inactive)	90.8 µM (inactive)	19.5 µM (inactive)	48.5 µM (inactive)	> 100 µM (inactive)	21.6 µM (inactive)	32.4 µM (inactive)	49.3 µM (inactive)
